Test results as given in patent US11046686B2, “Thiadiazole IRAK4 compounds” (Gilead Sciences, Inc., priority 2018, dated 2021).
Like-named read-outs stand apart in the source and are kept apart here.

Columns and labels:
IRAK4 enzyme = IRAK4 enzyme (Homo sapiens (Human), UniProt Q9NWZ3); experiment: IRAK4 Biochemical Assay (TR-FRET, STK1 KinEASE)
Experimental: IRAK4 enzyme (Carna Biosciences, Chuo-ku, Kobe, Japan) activity was measured by detecting phosphorylated peptide substrate formation using an antibody against the phosphorylated peptide substrate. This is a time-resolved fluorescence resonance energy transfer (TR-FRET) immunoassay, based on the STK1 KinEASE Assay (Cisbio, Bedford, Mass.). The assay was designed as a simple two-step, endpoint assay (a 5 μl enzyme reaction followed by 5 μl stop and detect Solution) performed in ProxiPlate-384 Plus plates (Perkin Elmer, Waltham, Mass.). […] Compounds diluted in DMSO were spotted into 384 well plates using a Labcyte® Echo 550 Liquid Handling System prior to addition of IRAK4 enzyme and peptide substrate. Reaction solutions were delivered using a Multi-Flo (Bio-Tek Instruments). The enzyme and peptide solution was incubated with compound for 15 minutes at room temp before the reaction was initiated by the addition of ATP. The standard 5 μl reaction mixture contained 500 μM ATP, […] peptide (STK1 Peptide), 0.75 nM of IRAK4 in reaction buffer (50 mM HEPES, pH 7.0, 0.02% NaN3, 0.01% BSA, 0.1 mM Orthovanadate, 5 mM […], 0.025% NP-40, 1 mM DTT). After 120 min of incubation at room temperature, 5 μl of Stop and Detect Solution (1:100 Cryptate labeled anti-phosphorylated peptide antibody solution and 125 nM Tracer in a 50 mM HEPES pH 7.0 detection buffer containing sufficient EDTA) was added. The plate was then further incubated for 60 minutes at room temperature and read on Envision 2103 Multilabeled reader (PerkinElmer) with excitation/emission/FRET emission at 340 nm/615 nm665 nm, respectively. Fluorescence intensities at 615 nm and 665 nm emission wavelengths were expressed as aratio (665 nm/615 nm). Percentage of inhibition was calculated as below: % Inhibition=100×(Ratiosample−Ratio0% Inhibition)/(Ratio100% Inhibition−Ratio0% Inhibition)
The 0% inhibition value comes from control wells lacking inhibitor.

TNFα = experiment: IRAK4 Monocyte TNFα Cell Based Assay; set-up: species or system human
Outline: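 Human monocytes (5,000/well) pretreated with compound 1 h at 37 °C (0.1% DMSO final), then stimulated with 50 pg/ml LPS for 4 h. Secreted TNFα measured by TR-FRET two-antibody detection after overnight incubation at room temperature; % control relative to unstimulated and LPS-stimulated wells.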

[1] = second part of Table 2, compounds 33-343, unit inferred, read-out: IC50 IRAK4-HTBS
[2] = Homo sapiens, Monocyte, human monocytes, second part of Table 2, compounds 33-343, unit inferred, read-out: EC50 MONO TNF HTRF
[3] = Homo sapiens, Monocyte, read-out: EC50 MONO TNF HTRF
[4] = compounds 1-32, read-out: IC50 HTRF
[5] = Homo sapiens, Monocyte, human monocytes, LPS stimulated, compounds 1-32, read-out: EC50 TNF
[6] = human monocytes, second part of Table 2, compounds 33-343, unit inferred, read-out: EC50 MONO TNF HTRF

Sequence of IRAK4 enzyme (Q9NWZ3 whole entry): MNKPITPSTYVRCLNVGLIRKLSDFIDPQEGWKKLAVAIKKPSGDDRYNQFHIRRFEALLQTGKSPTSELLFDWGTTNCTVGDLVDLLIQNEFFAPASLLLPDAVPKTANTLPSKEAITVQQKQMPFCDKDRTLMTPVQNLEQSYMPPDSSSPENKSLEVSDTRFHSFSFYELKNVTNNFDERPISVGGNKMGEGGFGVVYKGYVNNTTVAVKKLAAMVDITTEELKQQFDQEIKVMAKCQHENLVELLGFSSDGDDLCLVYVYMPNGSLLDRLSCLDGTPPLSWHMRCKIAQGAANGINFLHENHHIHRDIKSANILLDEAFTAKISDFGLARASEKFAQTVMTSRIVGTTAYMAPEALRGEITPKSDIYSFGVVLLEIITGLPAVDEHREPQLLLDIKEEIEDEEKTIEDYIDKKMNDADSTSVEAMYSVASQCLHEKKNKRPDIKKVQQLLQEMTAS

SMILES | EC50 (TNFα; [2]) [nM] | IC50 (IRAK4 enzyme) [nM] | also measured
CC(C)Nc1cc(-c2ccc3cc(C#N)cnn23)ncc1-c1nnc(CCN)s1 [Example 212, 7-(5-(5-(2-aminoethyl)-1,3,4-thiadiazol-2-yl)-4-(isopropylamino)pyridin-2-yl)pyrrolo[1,2-b]pyridazine-3-carbonitrile] | 305 |  | IC50 (IRAK4 enzyme; [1]): 1.01 nM
N#Cc1cnn2c(-c3cc(NC4CCOCC4)c(-c4nnc(C56CCC(N)(CC5)CC6)s4)cn3)ccc2c1 [Example 336, 7-(5-(5-(4-aminobicyclo[2.2.2]octan-1-yl)-1,3,4-thiadiazol-2-yl)-4-((tetrahydro-2H-pyran-4-yl)amino)pyridin-2-yl)pyrrolo[1,2-b]pyridazine-3-carbonitrile] |  | 0.7 | EC50 (TNFα; [3]): 11 nM
CC(=O)NC1CCN(c2nnc(-c3cnc(-c4ccc5cc(C#N)cnn45)cc3NC(C)C)s2)CC1(F)F (centres unmarked) [Compound 251, N-(1-(5-(6-(3-cyanopyrrolo[1,2-b]pyridazin-7-yl)-4-(isopropylamino)pyridin-3-yl)-1,3,4-thiadiazol-2-yl)-3,3-difluoropiperidin-4-yl)acetamide] | 4.4 | 0.48 | 
CC(=O)N[C@H]1CCN(C(=O)c2nnc(-c3cnc(-c4ccc5cc(C#N)cnn45)cc3NC(C)C)s2)C1 [Example 12, (S)-N-(1-(5-(6-(3-cyanopyrrolo[1,2-b]pyridazin-7-yl)-4-(isopropylamino)pyridin-3-yl)-1,3,4-thiadiazole-2-carbonyl)pyrrolidin-3-yl)acetamide] |  |  | IC50 (IRAK4 enzyme; [4]): < 1 nM; EC50 (TNFα; [5]): 9 nM
CC(C)Nc1cc(-c2ccc3cc(C#N)cnn23)ncc1-c1nnc(N2CC3CC(C2)N3C(=O)OC(C)(C)C)s1 [Compound 271, tert-butyl 3-(5-(6-(3-cyanopyrrolo[1,2-b]pyridazin-7-yl)-4-(isopropylamino)pyridin-3-yl)-1,3,4-thiadiazol-2-yl)-3,6-diazabicyclo[3.1.1]heptane-6-carboxylate] |  | 3.22 | EC50 (TNFα; [3]): 89 nM
CC1(O)CCN(c2nnc(-c3cnc(-c4ccc5cc(C#N)cnn45)cc3NC3COC3)s2)CC1 [Example 187, 7-(5-(5-(4-hydroxy-4-methylpiperidin-1-yl)-1,3,4-thiadiazol-2-yl)-4-(oxetan-3-ylamino)pyridin-2-yl)pyrrolo[1,2-b]pyridazine-3-carbonitrile] | 10.8 | 0.66 | 
CC1(O)CCN(c2nnc(-c3cnc(-c4ccc5cc(C#N)cnn45)cc3NC3CCOCC3)s2)CC1 [Example 188, 7-(5-(5-(4-hydroxy-4-methylpiperidin-1-yl)-1,3,4-thiadiazol-2-yl)-4-((tetrahydro-2H-pyran-4-yl)amino)pyridin-2-yl)pyrrolo[1,2-b]pyridazine-3-carbonitrile] | 7.6 | 1.07 | 
CC(C)Nc1cc(-c2ccc3cc(C#N)cnn23)ncc1-c1nnc(-n2cccc2)s1 [Example 28, 7-(5-(5-(1H-pyrrol-1-yl)-1,3,4-thiadiazol-2-yl)-4-(isopropylamino)pyridin-2-yl)pyrrolo[1,2-b]pyridazine-3-carbonitrile] |  |  | IC50 (IRAK4 enzyme; [4]): 1.7 nM; EC50 (TNFα; [5]): 6340 nM
CC(=O)N[C@@H]1CCN(c2nnc(-c3cnc(-c4ccc5cc(C#N)cnn45)cc3N[C@H](C)C#N)s2)CC1(F)F [Example 151, N-((R)-1-(5-(4-(((R)-1-cyanoethyl)amino)-6-(3-cyanopyrrolo[1,2-b]pyridazin-7-yl)pyridin-3-yl)-1,3,4-thiadiazol-2-yl)-3,3-difluoropiperidin-4-yl)acetamide] | 5 | 1.03 | 
C[C@]1(O)CC[C@@H](c2nnc(-c3cnc(-c4ccc5cc(C#N)cnn45)cc3NC3COC3)s2)CC1 [Example 208, 7-(5-(5-((1s,4s)-4-hydroxy-4-methylcyclohexyl)-1,3,4-thiadiazol-2-yl)-4-(oxetan-3-ylamino)pyridin-2-yl)pyrrolo[1,2-b]pyridazine-3-carbonitrile] |  |  | IC50 (IRAK4 enzyme; [1]): 0.67 nM; EC50 (TNFα; [6]): 13.6 nM
CC(C)Nc1cc(-c2ccc3cc(C#N)cnn23)ncc1-c1nncs1 [Example 30, 7-(4-(isopropylamino)-5-(1,3,4-thiadiazol-2-yl)pyridin-2-yl)pyrrolo[1,2-b]pyridazine-3-carbonitrile] |  |  | IC50 (IRAK4 enzyme; [4]): 1 nM; EC50 (TNFα; [5]): 78 nM
CC(=O)NC1CCN(c2nnc(-c3cnc(-c4ccc5cc(C#N)cnn45)cc3NC(C)C)s2)CC1 [Example 6, N-(1-(5-(6-(3-cyanopyrrolo[1,2-b]pyridazin-7-yl)-4-(isopropylamino)pyridin-3-yl)-1,3,4-thiadiazol-2-yl)piperidin-4-yl)acetamide] |  |  | IC50 (IRAK4 enzyme; [4]): < 1 nM; EC50 (TNFα; [5]): 19 nM
CC(=O)N[C@H]1CC[C@H](c2nnc(-c3cnc(-c4ccc5cc(C#N)cnn45)cc3NC3COC3)s2)CC1 [Example 21, N-((1r,4r)-4-(5-(6-(3-cyanopyrrolo[1,2-b]pyridazin-7-yl)-4-(oxetan-3-ylamino)pyridin-3-yl)-1,3,4-thiadiazol-2-yl)cyclohexyl)acetamide] |  |  | IC50 (IRAK4 enzyme; [4]): < 1 nM; EC50 (TNFα; [5]): 10 nM
CC(C)Nc1cc(-c2ccc3cc(C#N)cnn23)ncc1-c1nnc(NCC(C)(C)O)s1 [Example 37, 7-(5-(5-((2-hydroxy-2-methylpropyl)amino)-1,3,4-thiadiazol-2-yl)-4-(isopropylamino)pyridin-2-yl)pyrrolo[1,2-b]pyridazine-3-carbonitrile] | 10000 | 1000 | 
CC(C)Nc1cc(-c2ccc3cc(C#N)cnn23)ncc1-c1nnc(N2C[C@H]3CC[C@@H](C2)[C@@H]3NC(=O)[C@H](C)O)s1 [Example 91, (S)-N-((1R,5S,8s)-3-(5-(6-(3-cyanopyrrolo[1,2-b]pyridazin-7-yl)-4-(isopropylamino)pyridin-3-yl)-1,3,4-thiadiazol-2-yl)-3-azabicyclo[3.2.1]octan-8-yl)-2-hydroxypropanamide] |  |  | IC50 (IRAK4 enzyme; [1]): 0.93 nM; EC50 (TNFα; [6]): 3.9 nM
CC(C)Nc1cc(-c2ccc3cc(C#N)cnn23)ncc1-c1nnc(N2C[C@H]3C[C@@H]2CO3)s1 [Compound 237, 7-(5-(5-((1R,4R)-2-oxa-5-azabicyclo[2.2.1]heptan-5-yl)-1,3,4-thiadiazol-2-yl)-4-(isopropylamino)pyridin-2-yl)pyrrolo[1,2-b]pyridazine-3-carbonitrile] | 8.4 | 0.14 | 
CC(C)Nc1cc(-c2ccc3cc(C#N)cnn23)ncc1-c1nnc(CC(=O)O)s1 [Example 319, 2-(5-(6-(3-cyanopyrrolo[1,2-b]pyridazin-7-yl)-4-(isopropylamino)pyridin-3-yl)-1,3,4-thiadiazol-2-yl)acetic acid] | 126 | 1.68 | 
CC(C)(O)[C@H]1C[C@H]1c1nnc(-c2cnc(-c3ccc4cc(C#N)cnn34)cc2NC2COC2)s1 (single isomer, unassigned; isomer 4) [136 Isomer 4] |  |  | IC50 (IRAK4 enzyme; [1]): 0.74 nM; EC50 (TNFα; [6]): 30.5 nM
CC(=O)NC[C@@H]1CCCN1C(=O)c1nnc(-c2cnc(-c3ccc4cc(C#N)cnn34)cc2NC(C)C)s1 [Example 41, (S)-N-((1-(5-(6-(3-cyanopyrrolo[1,2-b]pyridazin-7-yl)-4-(isopropylamino)pyridin-3-yl)-1,3,4-thiadiazole-2-carbonyl)pyrrolidin-2-yl)methyl)acetamide] | 11.6 | 1.38 | 
CC(=O)NC12CC(c3nnc(-c4cnc(-c5ccc6cc(C#N)cnn56)cc4NC(C)C)s3)(C1)C2 [Compound 246, N-(3-(5-(6-(3-cyanopyrrolo[1,2-b]pyridazin-7-yl)-4-(isopropylamino)pyridin-3-yl)-1,3,4-thiadiazol-2-yl)bicyclo[1.1.1]pentan-1-yl)acetamide] | 43.3 | 1.37 | 
CC(=O)NC12C3C4C1C1C2C3C41c1nnc(-c2cnc(-c3ccc4cc(C#N)cnn34)cc2NC(C)C)s1 (centres unmarked) [Example 197, N-(4-(5-(6-(3-cyanopyrrolo[1,2-b]pyridazin-7-yl)-4-(isopropylamino)pyridin-3-yl)-1,3,4-thiadiazol-2-yl)cuban-1-yl)acetamide] | 32.9 | 1.57 | 
CC(=O)N1C2CCC1CN(c1nnc(-c3cnc(-c4ccc5cc(C#N)cnn45)cc3NC(C)C)s1)C2 [Compound 259, 7-(5-(5-(8-acetyl-3,8-diazabicyclo[3.2.1]octan-3-yl)-1,3,4-thiadiazol-2-yl)-4-(isopropylamino)pyridin-2-yl)pyrrolo[1,2-b]pyridazine-3-carbonitrile] |  | 0.94 | EC50 (TNFα; [3]): 2.6 nM
